Measured values as given in patent US6342519B2, “Oxetanone derivatives” (2 Pro Chemical, priority 1999, dated 2002).

What was measured:
human lipase = biological target: T1, human lipase (Homo sapiens, UniProt P16233); assay: Lipase inhibition assay, Lipase #1 solution (Aldrich Lipase PS Standard); type: biochemical; details: Lipase #1 (human lipase), 20 mL of compound stock solution in 0.2 N HCl, Sigma Lipase Substrate, pH about 8, 30 minutes, 35-37° C., titration with 0.025 N NaOH, two runs
T1 construct: purchased Aldrich Product No. 8054
T1 sequence (P16233 17-465): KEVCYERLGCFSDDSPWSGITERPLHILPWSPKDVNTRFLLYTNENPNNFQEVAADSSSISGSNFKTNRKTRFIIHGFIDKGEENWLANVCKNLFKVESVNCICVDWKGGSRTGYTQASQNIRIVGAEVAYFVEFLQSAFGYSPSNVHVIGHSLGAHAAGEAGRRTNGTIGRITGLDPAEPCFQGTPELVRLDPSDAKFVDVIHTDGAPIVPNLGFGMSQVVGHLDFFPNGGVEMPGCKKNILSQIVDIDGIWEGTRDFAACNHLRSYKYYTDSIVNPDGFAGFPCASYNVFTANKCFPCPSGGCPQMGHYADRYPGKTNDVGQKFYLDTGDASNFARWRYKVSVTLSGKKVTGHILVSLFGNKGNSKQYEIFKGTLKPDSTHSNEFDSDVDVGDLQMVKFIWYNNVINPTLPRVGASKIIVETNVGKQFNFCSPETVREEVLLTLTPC
Protocol: (§1) Lipase inhibition assays were performed essentially as follows using each of Compounds A and B.
(§2) A 1 L stock solution of 1N NaOH was made and a 500 mL stock solution of 0.025 N NaOH was made by diluting a portion of the stock 1N solution. Also a stock solution of 0.2 N HCl was made. A 100 mL TRIZMA solution (from Aldrich Lipase Assay Kit Cat. No. 800B) was diluted with 100 mL of denatured EtOH and 300 mL of water to form a 500 mL TEW solution. Compound A from Example 6 (100 mg) was added to a portion of the 0.2 N HCl stock solution and diluted to a final volume of 300 mL with the same HCl stock solution to form a compound A stock solution. […]
(§3) In a 500 mL beaker equipped with a heat source and a magnetic stirrer was added 100 mL of distilled water, 10 mL of TEW solution, 10 mL of Sigma Lipase Substrate and a 20 mL sample (sample control was 20 mL of the stock 0.2 N HCl solution, sample A was 20 mL of the compound A stock solution, and sample B was 20 mL of the compound B stock solution). The pH was adjusted to about 8 with 1N NaOH using a pH meter, whose reading was noted and recorded as a baseline reading after the pH adjustment. […] The volume of NaOH solution used to return to the baseline pH reading was noted and recorded. […]

[1] = Oil binding assay with olive oil and food-coloured water; type: physicochemical; details: for oil binding, observation: olive oil/substance 1.5/1 ratio by weight, then 4 mL of water with food coloring
Protocol: Oil binding assay were performed using each of Compounds A and B using the procedures essentially as follows.
Six controls were obtained by adding Star Brand Olive Oil (extra virgin light colored olive oil) to 4 or 7 mL sample bottles, which were photographed at a distance of 10 inches by using an IZONE POLAROID camera as follows.
For comparison with Control 4 (oil/chitosan 1.5/1 ratio) each of Compounds A and B were mixed with oil in the same ratio(oil/compound 1.5/1 ratio, green food coloring was added to the aqueous portion of the compound A sample bottle and blue food coloring was added to the aqueous portion of the compound B sample bottle).
For comparison with Control 6 (oil/chitosan 8:1 ratio and 1 mL of aqueous solution with food coloring), compound B was added to 8 times its weight of oil and stirred to a uniform consistency. The 1 mL of water was added and 5 drops of red food coloring were added.

[2] = biological target: T2, Pork Pancreas Lipase [EC 3.1.1.3] (Sus scrofa, UniProt P00591); assay: Lipase inhibition assay, Lipase #2 solution (Aldrich Pork Pancreas Lipase); type: biochemical; details: Lipase #2 (pork pancreas lipase), 20 mL of compound stock solution in 0.2 N HCl, Sigma Lipase Substrate, pH about 8, 30 minutes, 35-37° C., titration with 0.025 N NaOH, two runs
T2 construct: purchased Aldrich Product No. 32313; host or cells: pork pancreas
T2 sequence (P00591 1-450): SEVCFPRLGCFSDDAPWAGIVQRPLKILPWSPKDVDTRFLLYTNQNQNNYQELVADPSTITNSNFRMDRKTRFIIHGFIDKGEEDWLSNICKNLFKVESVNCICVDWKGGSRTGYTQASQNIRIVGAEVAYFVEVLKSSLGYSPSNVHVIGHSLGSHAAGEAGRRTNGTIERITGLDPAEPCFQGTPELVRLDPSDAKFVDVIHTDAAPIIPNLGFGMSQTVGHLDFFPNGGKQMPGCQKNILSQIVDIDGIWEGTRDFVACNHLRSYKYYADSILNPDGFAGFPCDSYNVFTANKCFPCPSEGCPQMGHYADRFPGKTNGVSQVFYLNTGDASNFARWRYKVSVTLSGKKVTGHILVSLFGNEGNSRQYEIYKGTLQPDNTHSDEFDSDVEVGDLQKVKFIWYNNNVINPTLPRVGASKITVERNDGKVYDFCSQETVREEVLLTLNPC
Protocol: as §1, §2, §3

[3] = system: absorption of dietary fat; details: 120 mg dose taken before, or up to one hour after, a fat-containing meal; average person; cited from earlier work

Row | Molecule | percent inhibition with respect to the control (human lipase) | oil binding, observation [1] | percent inhibition with respect to the control [2] | water absorbed after binding oil ([1]; olive oil/compound 8:1, 1 mL of water) | tightness of oil binding compared with chitosan and compound A ([1]; olive oil/substance 1.5/1 ratio) | oil binding and water uptake, observation ([1]; olive oil/substance 8:1 ratio by weight, then 1 mL of water and 5 drops of red food coloring) | share of the fat eaten at a given meal that is not absorbed [3]
1 | 2S, 3S, 4S [2-{(hexanoic acid modified chitosan 6-hexanoylamido}-4-methylvaleryloxy]-2-hexyl-hexadecanoic 1,3-lactone [Compound A] | about 50% | oil is bound tightly at the bottom of the bottle and there is substantially no floating oil | about 50% | – | – | – | –
2 | 4-[{(hexanoic acid modified chitosan 6-hexanoyloxy}-2-hexyl-hexadecanoic 1,3-lactone [Compound B] | about 50% | oil is bound tightly at the bottom of the bottle and there is substantially no floating oil | about 50% | at least its weight in water | appeared to perhaps bind the oil more tightly than either chitosan or compound A | uniformly absorbed the 1 mL of aqueous food coloring solution to form a homogenous layer which was present even after 24 hours | –
3 | CCCCCCCCCCC[C@@H](C[C@@H]1OC(=O)[C@H]1CCCCCC)OC(=O)[C@H](CC(C)C)NC=O [Orlistat, (2S,3S,5S)-5-[(S)-2-formamido-4-methyl-valeryloxy]-2-hexyl-3-hydroxy-hexadecanoic 1,3 acid lactone] | – | – | – | – | – | – | up to one-third
